Experimental data reported in PubChem BioAssay (NCI).
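Method: 48-hour compound exposure of cells in 96-well plates, five concentrations, linear interpolation of endpoints. TGI marks complete inhibition of growth.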

Experiments:
Assay in all cases: DTP human tumour cell line panel, 48 h
[1] = system: SN12C renal
[2] = system: IGROV1 ovarian
[3] = system: K-562 leukemia
[4] = system: COLO 205 colon
[5] = system: SK-OV-3 ovarian
[6] = system: OVCAR-3 ovarian
[7] = system: HOP-92 NSCLC
[8] = system: SW-620 colon
[9] = system: UO-31 renal
[10] = system: TK-10 renal
[11] = system: HCT-15 colon
[12] = system: T-47D breast
[13] = system: RXF 393 renal
[14] = system: MCF7 breast
[15] = system: MDA-MB-435

For `N#CCCN(c1ccc(C=Nc2cccc([N+](=O)[O-])c2)cc1)S(=O)(=O)c1ccccc1`, the TGI [1] was over 100 µM, the TGI [2] was over 100 µM and the TGI [3] was over 100 µM. It also gave a TGI [4] of over 100 µM, a TGI [5] of over 100 µM and a TGI [6] of over 100 µM. The TGI [7] was over 100 µM, the TGI [8] was over 100 µM and the TGI [9] was over 100 µM. The TGI [10] was over 100 µM.

With `CCOC(=O)C(OCC1CC=CCC1)Sc1ccccc1` (stereo unspecified) the TGI [1] was over 100 µM, the TGI [2] was over 100 µM and the TGI [3] was over 100 µM. It also gave a TGI [4] of over 100 µM, a TGI [5] of over 100 µM and a TGI [6] of over 100 µM. The TGI [7] was over 100 µM, the TGI [8] was over 100 µM and the TGI [9] was over 100 µM. The TGI [11] was over 100 µM and the TGI [10] was over 100 µM.

In the case of `CC(C)(C)OC(=O)NC(C)(C)C(=O)NCCC(=O)O`, the TGI [12] is reported as over 100 µM, the TGI [13] is reported as over 100 µM and the TGI [1] is reported as over 100 µM. It also gave a TGI [2] of over 100 µM, a TGI [3] of over 100 µM and a TGI [4] of over 100 µM. It also gave a TGI [5] of over 100 µM, a TGI [14] of over 100 µM and a TGI [6] of over 100 µM. It also gave a TGI [8] of over 100 µM, a TGI [9] of over 100 µM and a TGI [11] of over 100 µM. It also gave a TGI [15] of over 100 µM and a TGI [10] of over 100 µM.

`Cc1ccccc1C1OC1C(=O)c1ccccc1N` (stereo unspecified) showed a TGI [13] of over 100 µM, a TGI [1] of over 100 µM and a TGI [3] of over 100 µM. For the same molecule, the TGI [4] was over 100 µM, the TGI [5] was over 100 µM and the TGI [14] was over 100 µM. The TGI [7] was over 100 µM, the TGI [8] was over 100 µM and the TGI [9] was over 100 µM. The TGI [11] was over 100 µM, the TGI [15] was 43.2 µM and the TGI [10] was over 100 µM.

Molecule `O=C1O[C@@H](c2ccccc2)C[C@@H]1CN1CCOCC1` has a TGI [13] of over 100 µM, a TGI [1] of over 100 µM and a TGI [2] of over 100 µM. It also gave a TGI [3] of over 100 µM, a TGI [4] of over 100 µM and a TGI [5] of over 100 µM. The TGI [6] was over 100 µM, the TGI [7] was over 100 µM and the TGI [8] was over 100 µM. The TGI [9] was over 100 µM, the TGI [11] was over 100 µM and the TGI [10] was over 100 µM.

`C=CCN(CC=C)Cn1c(=S)sc2ccccc21` gave a TGI [13] of over 100 µM, a TGI [1] of over 100 µM and a TGI [2] of over 100 µM. It also gave a TGI [4] of over 100 µM, a TGI [5] of over 100 µM and a TGI [14] of over 100 µM. The TGI [6] was over 100 µM, the TGI [7] was over 100 µM and the TGI [8] was over 100 µM. It also gave a TGI [9] of over 100 µM, a TGI [11] of over 100 µM and a TGI [15] of over 100 µM. It also gave a TGI [10] of over 100 µM.

Molecule `Cc1c(/C=N\NC(=S)N2CCN(C(=S)N/N=C\c3c(C)n(C)n(-c4ccccc4)c3=O)CC2)c(=O)n(-c2ccccc2)n1C` has a TGI [12] of over 100 µM, a TGI [13] of over 100 µM and a TGI [4] of over 100 µM. It also gave a TGI [5] of over 100 µM, a TGI [6] of over 100 µM and a TGI [7] of over 100 µM. It also gave a TGI [8] of over 100 µM, a TGI [9] of over 100 µM and a TGI [11] of over 100 µM. The TGI [15] was 64.7 µM and the TGI [10] was 33.9 µM.

Work on `O=C1CC(O)c2c1csc2Br` (stereo unspecified) yielded a TGI [12] of over 100 µM, a TGI [13] of 38.1 µM and a TGI [1] of 87.9 µM. For the same molecule, the TGI [2] was 35.9 µM, the TGI [3] was 76.7 µM and the TGI [4] was 59.9 µM. For the same molecule, the TGI [5] was over 100 µM, the TGI [14] was 45.7 µM and the TGI [6] was 64.4 µM. For the same molecule, the TGI [8] was 37.2 µM, the TGI [9] was 53.3 µM and the TGI [11] was 39 µM. The TGI [15] was 41.1 µM and the TGI [10] was 38.2 µM.

`O=C1CC(c2ccco2)C2(C(=O)NC(=O)NC2=O)C(c2ccco2)C1` (stereo unspecified) was tested, and the TGI [12] was over 75 µM, the TGI [13] was over 75 µM and the TGI [1] was over 75 µM. The TGI [2] was over 75 µM, the TGI [3] was over 75 µM and the TGI [4] was over 75 µM. For the same molecule, the TGI [5] was over 75 µM, the TGI [14] was over 75 µM and the TGI [6] was over 75 µM. The TGI [8] was over 75 µM, the TGI [9] was over 75 µM and the TGI [11] was over 75 µM. For the same molecule, the TGI [15] was over 75 µM and the TGI [10] was over 75 µM.

`CC(C)C(Sc1nc(-c2ccccc2)c(-c2ccccc2)[nH]1)C(=O)NNC(=S)Nc1ccccc1` (stereo unspecified) was tested, and the TGI [1] was 33.8 µM, the TGI [2] was 35.7 µM and the TGI [4] was 35.9 µM. For the same molecule, the TGI [5] was 45.3 µM, the TGI [6] was 29 µM and the TGI [7] was 34.3 µM. It also gave a TGI [8] of 33.1 µM, a TGI [9] of 35.8 µM and a TGI [11] of 33.8 µM. For the same molecule, the TGI [10] was over 100 µM.

`CC12CC(c3ccccc3O1)C(C(=O)Nc1ccc(F)cc1)C(=O)N2` (stereo unspecified) showed a TGI [12] of over 100 µM, a TGI [2] of over 100 µM and a TGI [3] of over 100 µM. It also gave a TGI [4] of over 100 µM, a TGI [5] of over 100 µM and a TGI [14] of over 100 µM. The TGI [6] was over 100 µM, the TGI [8] was over 100 µM and the TGI [9] was over 100 µM. It also gave a TGI [11] of over 100 µM and a TGI [15] of over 100 µM.

Molecule `COC1O[C@H]2CCN(C(=O)OCc3ccccc3)[C@H]2[C@H]1OCc1ccccc1` (stereo partly specified) has a TGI [13] of over 100 µM, a TGI [1] of over 100 µM and a TGI [2] of over 100 µM. It also gave a TGI [3] of over 100 µM, a TGI [4] of over 100 µM and a TGI [5] of 55.3 µM. For the same molecule, the TGI [6] was over 100 µM, the TGI [7] was over 86 µM and the TGI [8] was over 100 µM. For the same molecule, the TGI [9] was 97.7 µM, the TGI [11] was over 100 µM and the TGI [10] was over 100 µM.

Molecule `Clc1cc(N/N=C(/c2ccccc2)c2ncccn2)ncn1` has a TGI [13] of 41.4 µM, a TGI [1] of over 100 µM and a TGI [2] of 36.3 µM. It also gave a TGI [3] of 51.8 µM, a TGI [4] of 22.8 µM and a TGI [5] of 35.7 µM. It also gave a TGI [14] of 46.4 µM, a TGI [6] of 76 µM and a TGI [7] of 36.6 µM. The TGI [8] was over 100 µM, the TGI [9] was 55.8 µM and the TGI [11] was over 100 µM. The TGI [15] was over 100 µM.

For `c1ccc(C[P+]2(c3ccccc3)c3ccccc3-c3ccccc32)cc1`, the TGI [13] was over 100 µM, the TGI [1] was over 100 µM and the TGI [2] was over 100 µM. The TGI [3] was over 100 µM, the TGI [4] was over 100 µM and the TGI [5] was over 100 µM. It also gave a TGI [14] of over 100 µM, a TGI [6] of over 100 µM and a TGI [7] of over 100 µM. The TGI [8] was over 100 µM, the TGI [9] was over 100 µM and the TGI [11] was over 100 µM. The TGI [15] was over 100 µM and the TGI [10] was over 100 µM.

In the case of `Cc1cc(=O)cc2sc3c(C)cccc3nc1-2`, the TGI [13] is reported as over 100 µM, the TGI [1] is reported as 78.7 µM and the TGI [2] is reported as 54.9 µM. For the same molecule, the TGI [3] was 91.2 µM, the TGI [4] was 32.6 µM and the TGI [5] was over 100 µM. It also gave a TGI [6] of 52 µM, a TGI [7] of 85.9 µM and a TGI [8] of 17.7 µM. It also gave a TGI [9] of over 100 µM, a TGI [11] of over 100 µM and a TGI [10] of 77.4 µM.

With `CCCCN(CC)c1nc(C)nc2c1c(C)c(C)n2-c1c(C)cc(C)cc1C` the TGI [12] was 25.4 µM, the TGI [13] was 19.7 µM and the TGI [1] was 40.9 µM. For the same molecule, the TGI [2] was 29.2 µM, the TGI [3] was 29.8 µM and the TGI [4] was 32.6 µM. The TGI [5] was 32.9 µM, the TGI [6] was 26.6 µM and the TGI [7] was 21.5 µM. For the same molecule, the TGI [8] was 33.4 µM, the TGI [9] was 28.9 µM and the TGI [11] was 27.6 µM. For the same molecule, the TGI [15] was 33.3 µM and the TGI [10] was 31.1 µM.

For `Cc1c(Cl)ccc2c(=O)c3cccc(CC(=O)O)c3oc12`, the TGI [1] was over 100 µM, the TGI [2] was over 100 µM and the TGI [3] was over 100 µM. It also gave a TGI [4] of over 100 µM, a TGI [14] of over 100 µM and a TGI [6] of over 100 µM. It also gave a TGI [7] of over 100 µM, a TGI [8] of over 100 µM and a TGI [9] of over 100 µM. The TGI [11] was over 100 µM, the TGI [15] was over 100 µM and the TGI [10] was over 100 µM.

In the case of `CCCN=C1CC(C)Nc2ccccc2N1` (stereo unspecified), the TGI [13] is reported as over 100 µM, the TGI [1] is reported as over 100 µM and the TGI [2] is reported as over 100 µM. It also gave a TGI [3] of over 100 µM, a TGI [4] of over 100 µM and a TGI [5] of over 100 µM. For the same molecule, the TGI [6] was over 100 µM, the TGI [8] was over 100 µM and the TGI [9] was over 100 µM. It also gave a TGI [11] of over 100 µM, a TGI [15] of over 100 µM and a TGI [10] of over 100 µM.
